Our source for the EC50 values is patent US8785488B2 (Exelixis Patent Company LLC, priority 2009, dated 2014).

Each structure is given as a SMILES string. Where two headings read alike, the source gives them in different places.

One test deals with T1, human TGR5 (h-TGR5) (Homo sapiens, UniProt Q8TDU6).
T1 construct: expressed in transfected cells
T1 sequence (Q8TDU6 1-330): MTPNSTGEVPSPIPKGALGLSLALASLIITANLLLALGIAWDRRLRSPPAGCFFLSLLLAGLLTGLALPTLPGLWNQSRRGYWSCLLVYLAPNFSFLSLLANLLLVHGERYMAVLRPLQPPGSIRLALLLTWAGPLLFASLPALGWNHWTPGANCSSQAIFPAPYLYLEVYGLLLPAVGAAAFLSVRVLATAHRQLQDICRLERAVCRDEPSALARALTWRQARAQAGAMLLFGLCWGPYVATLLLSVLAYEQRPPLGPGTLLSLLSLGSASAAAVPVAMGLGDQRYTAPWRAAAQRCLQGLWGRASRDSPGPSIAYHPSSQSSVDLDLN
The experiment in a line: TGR5/CRE-Luciferiase Assay (HEK 293 hTGR5/CRE-Luc cells). Type of test: cell-based. The procedure, abridged:
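HEK293 cells stably carrying hTGR5 and a CRE-luciferase reporter were exposed to serially diluted compounds (diluted in DMEM with 5% DMSO) for 6 h. Cells were then lysed in luciferase buffer, luminescence was read, and EC50 values were derived from dose-response curves.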

The target of a further test is T2, h-TGR5 (Homo sapiens, UniProt Q8TDU6).
T2 construct: expressed in transfected cells
T2 sequence (Q8TDU6 1-330): T1 sequence (Q8TDU6 1-330)
In words: TGR5 cAMP Assay using Cisbio cAMP Dynamic2 htrf kit (hTGR5CRE-luc HEK 293 cells). It counts as cell-based. An outline of the steps: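 […], 4000 hTGR5CRE-luc HEK 293 cells per well, with 0.5 mM IBMX and d2-cAMP, were incubated 30 min at room temperature with compounds in 8-point half-log series, in quadruplicate.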

Setting [1] is: h-TGR5 CRE-Luc EC50, Table 1, read-out: CRE-Luc (EC50).
Setting [2] is: h-TGR5 cAMP EC50, Table 1, read-out: cAMP (EC50).

The term EC50 denotes the concentration needed to bring the measured effect to its halfway point. Regarding `COc1cc(C(C)(C)c2cnc(SCc3ccc(S(=O)(=O)NC(=O)NN4CCCC4)cc3Cl)n2-c2ccc(F)cc2F)ccc1Cl` [3-chloro-4-({[5-{1-[4-chloro-3-(methyloxy)phenyl]-1-methylethyl}-1-(2,4-difluorophenyl)-1H-imidazol-2-yl]thio}methyl)-N-[(pyrrolidin-1-ylamino)carbonyl]benzenesulfonamide], the concentration giving a half-maximal response (EC50) on human TGR5 (h-TGR5) (setting [1]) and at h-TGR5 (setting [2]) was 100 to 1000 nM throughout.
`COc1cc(C(C)(C)c2cnc(SCc3ccc(C(=O)NCCC(=O)O)cc3F)n2-c2ccc(F)cc2)ccc1Cl` [N-{[4-({[5-{1-[4-chloro-3-(methyloxy)phenyl]-1-methylethyl}-1-(4-fluorophenyl)-1H-imidazol-2-yl]thio}methyl)-3-fluorophenyl]carbonyl}-beta-alanine]: the EC50 on human TGR5 (h-TGR5) (setting [1]) and on h-TGR5 (setting [2]) was < 100 nM in each case.
On to `COc1cc(C(C)(C)c2cnc(SCc3c(F)cc(S(=O)(=O)NC(=O)NN4CCOCC4)cc3F)n2-c2ccc(F)cn2)ccc1Cl` [4-({[5-{1-[4-chloro-3-(methyloxy)phenyl]-1-methylethyl}-1-(5-fluoropyridin-2-yl)-1H-imidazol-2-yl]thio}methyl)-3,5-difluoro-N-[(morpholin-4-ylamino)carbonyl]benzenesulfonamide], for which the EC50 at human TGR5 (h-TGR5) (setting [1]) and at h-TGR5 (setting [2]) was 100 to 1000 nM each time.
As for `COc1cc(-n2c(C(C)(C)c3ccc(S(N)(=O)=O)c(Cl)c3)cnc2SCc2ccc(S(=O)(=O)NC(=O)NN3CCOCC3)cc2Cl)ccc1F` [4-{[(5-{1-[4-(aminosulfonyl)-3-chlorophenyl]-1-methylethyl}-1-[4-fluoro-3-(methyloxy)phenyl]-1H-imidazol-2-yl)thio]methyl}-3-chloro-N-[(morpholin-4-ylamino)carbonyl]benzenesulfonamide], the results for the 50% effective concentration (EC50) at human TGR5 (h-TGR5) (setting [1]) and at h-TGR5 (setting [2]) were 100 to 1000 nM and < 100 nM, respectively.
The matching figures for `COc1cc(C(C)(C)c2cnc(SCc3c(F)cc(C(=O)Nc4nnn[nH]4)cc3Cl)n2-c2ccc(F)cc2)ccc1Cl` [3-chloro-4-({[5-{1-[4-chloro-3-(methyloxy)phenyl]-1-methylethyl}-1-(4-fluorophenyl)-1H-imidazol-2-yl]thio}methyl)-5-fluoro-N-1H-tetrazol-5-ylbenzamide]: < 100 nM and < 100 nM.
For `COc1cc(-n2c(C(C)(C)c3ccc(Cl)c(Cl)c3)cnc2SCC2CCN(c3nnn[nH]3)CC2)ccc1F` [4-[({5-[1-(3,4-dichlorophenyl)-1-methylethyl]-1-[4-fluoro-3-(methyloxy)phenyl]-1H-imidazol-2-yl}thio)methyl]-1-(1H-tetrazol-5-yl)piperidine] the same measures were < 100 nM and < 100 nM.
The matching figures for `CC(C)(c1ccc(Cl)c(Cl)c1)c1cnc(SCc2ccc(C(=O)O)cc2F)n1-c1ccc(F)cc1` [4-[({5-[1-(3,4-dichlorophenyl)-1-methylethyl]-1-(4-fluorophenyl)-1H-imidazol-2-yl}thio)methyl]-3-fluorobenzoic acid]: 100 to 1000 nM and 100 to 1000 nM.
Regarding `COc1cc(-n2c(C(C)(C)c3ccc(F)c(Cl)c3)cnc2SCc2c(F)cc(OCCNC(=N)N)cc2F)ccc1F` [1-[2-({4-[({5-[1-(3-chloro-4-fluorophenyl)-1-methylethyl]-1-[4-fluoro-3-(methyloxy)phenyl]-1H-imidazol-2-yl}thio)methyl]-3,5-difluorophenyl}oxy)ethyl]guanidine], the EC50 on human TGR5 (h-TGR5) (setting [1]) and on h-TGR5 (setting [2]) was < 100 nM in each case.
Turning to `CC(C)(c1ccc(Cl)c(Cl)c1)c1cnc(SCc2c(F)cccc2F)n1-c1ccc(F)cc1` [5-[1-(3,4-dichlorophenyl)-1-methylethyl]-2-{[(2,6-difluorophenyl)methyl]thio}-1-(4-fluorophenyl)-1H-imidazole], the values for the EC50 at human TGR5 (h-TGR5) (setting [1]) and on h-TGR5 (setting [2]) were < 100 nM and 100 to 1000 nM, respectively.
For `COc1cc(C(C)(C)c2cnc(SCc3c(F)cc(NC(=O)[C@@H](N)CC(=O)O)cc3Cl)n2-c2ccc(F)cc2)ccc1Cl` the same measures were < 100 nM and < 100 nM.
For `COc1cc(C(C)(C)c2c(Cl)nc(SCC3CCN(c4nnn[nH]4)CC3)n2-c2ccc(F)cc2)ccc1Cl` [4-({[4-chloro-5-{1-[4-chloro-3-(methyloxy)phenyl]-1-methylethyl}-1-(4-fluorophenyl)-1H-imidazol-2-yl]thio}methyl)-1-(1H-tetrazol-5-yl)piperidine] the same measures were < 100 nM and 1000 to 10000 nM.
For the molecule `CC(C)(c1ccc(F)c(F)c1)c1cnc(SCc2ccc(S(=O)(=O)NC(=O)NN3CCCC3)cc2Cl)n1-c1ccc(F)cc1F` [3-chloro-4-[({1-(2,4-difluorophenyl)-5-[1-(3,4-difluorophenyl)-1-methylethyl]-1H-imidazol-2-yl}thio)methyl]-N-[(pyrrolidin-1-ylamino)carbonyl]benzenesulfonamide], the EC50 on human TGR5 (h-TGR5) (setting [1]) was in the range of 100 to 1000 nM; at h-TGR5 (setting [2]) it was 1000 to 10000 nM.
For `CC(C)(c1ccc(Cl)cc1F)c1cnc(SCc2c(F)cccc2Cl)n1-c1ccc(F)cc1` [5-[1-(4-chloro-2-fluorophenyl)-1-methylethyl]-2-{[(2-chloro-6-fluorophenyl)methyl]thio}-1-(4-fluorophenyl)-1H-imidazole], the EC50 on human TGR5 (h-TGR5) (setting [1]) and on h-TGR5 (setting [2]) was 100 to 1000 nM in each case.
`CC(C)(c1ccc(Cl)c(Cl)c1)c1nnc(SCc2c(F)cc(C(=O)O)cc2F)n1-c1ccc(F)cc1` [Example 48]: the EC50 fell in the range of 100 to 1000 nM on human TGR5 (h-TGR5) (HEK 293 hTGR5/CRE-Luc cells, 6 hours incubation, luciferase activity, Table 2, read-out: h-TGR5CRE-Luc EC50 (CRE-Luc)) and 100 to 1000 nM on h-TGR5 (hTGR5CRE-luc HEK 293 cells, htrf cAMP, Table 2, read-out: h-TGR5 cAMP EC50 (cAMP)).
On to `CC(C)NC(=O)NS(=O)(=O)c1ccc(CSc2ncc(C(C)(C)c3ccc(Cl)c(Cl)c3)n2-c2ccc(F)cc2)c(Cl)c1` [3-chloro-4-[({5-[1-(3,4-dichlorophenyl)-1-methylethyl]-1-(4-fluorophenyl)-1H-imidazol-2-yl}thio)methyl]-N-{[(1-methylethyl)amino]carbonyl}benzenesulfonamide], for which the EC50 on human TGR5 (h-TGR5) (setting [1]) and on h-TGR5 (setting [2]) was 100 to 1000 nM throughout.
For the molecule `COc1ccc(C(C)(C)c2cnc(SCc3ccc(S(=O)(=O)NC(=O)NN4CCCC4)cc3Cl)n2-c2ccc(F)c(C)c2)cc1Cl` [3-chloro-4-({[5-{1-[3-chloro-4-(methyloxy)phenyl]-1-methylethyl}-1-(4-fluoro-3-methylphenyl)-1H-imidazol-2-yl]thio}methyl)-N-[(pyrrolidin-1-ylamino)carbonyl]benzenesulfonamide], the EC50 on human TGR5 (h-TGR5) (setting [1]) and on h-TGR5 (setting [2]) was 100 to 1000 nM throughout.
Turning to `CC(C)(c1ccc(O)c(O)c1)c1cnc(SCc2c(F)cccc2Cl)n1-c1ccc(F)cc1` [4-{1-[2-{[(2-chloro-6-fluorophenyl)methyl]thio}-1-(4-fluorophenyl)-1H-imidazol-5-yl]-1-methylethyl}benzene-1,2-diol], the EC50 was < 100 nM on human TGR5 (h-TGR5) (setting [1]) and 100 to 1000 nM on h-TGR5 (setting [2]).
The matching figures for `COc1ccc(C(C)(C)c2cnc(SCc3ccc(F)c(S(N)(=O)=O)c3)n2-c2ccc(F)cc2)cc1Cl` [5-({[5-{1-[3-chloro-4-(methyloxy)phenyl]-1-methylethyl}-1-(4-fluorophenyl)-1H-imidazol-2-yl]thio}methyl)-2-fluorobenzenesulfonamide]: < 100 nM and < 100 nM.
The matching figures for `COc1cc(C(C)(C)c2cnc(SCc3ccnc(N)c3)n2-c2ccc(F)cc2)ccc1Cl` [4-({[5-{1-[4-chloro-3-(methyloxy)phenyl]-1-methylethyl}-1-(4-fluorophenyl)-1H-imidazol-2-yl]thio}methyl)pyridin-2-amine]: 100 to 1000 nM and 100 to 1000 nM.
For `COc1cc(-n2c(C(C)(C)c3ccc(Cl)c(Cl)c3)cnc2SCc2c(F)cc(C(=O)O)cc2F)ccc1F` [4-[({5-[1-(3,4-dichlorophenyl)-1-methylethyl]-1-[4-fluoro-3-(methyloxy)phenyl]-1H-imidazol-2-yl}thio)methyl]-3,5-difluorobenzoic acid] the same measures were < 100 nM and < 100 nM.
On to `CC(C)(c1ccc(S(N)(=O)=O)c(Cl)c1)c1cnc(SCc2ccc(S(=O)(=O)NC(=O)NN3CCCC3)cc2Cl)n1-c1ccc(F)cc1` [4-({[5-{1-[4-(aminosulfonyl)-3-chlorophenyl]-1-methylethyl}-1-(4-fluorophenyl)-1H-imidazol-2-yl]thio}methyl)-3-chloro-N-[(pyrrolidin-1-ylamino)carbonyl]benzenesulfonamide], for which the EC50 on human TGR5 (h-TGR5) (setting [1]) and on h-TGR5 (setting [2]) was 100 to 1000 nM throughout.
With `COc1cc(-n2c(C(C)(C)c3ccc4onc(N)c4c3)cnc2SCc2c(F)cc(C(=O)NC(CCCNC(=N)N)C(=O)O)cc2Cl)ccc1F` [N-2-({4-[({5-[1-(3-amino-1,2-benzisoxazol-5-yl)-1-methylethyl]-1-[4-fluoro-3-(methyloxy)phenyl]-1H-imidazol-2-yl}thio)methyl]-3-chloro-5-fluorophenyl}carbonyl]-D-arginine], the EC50 on human TGR5 (h-TGR5) (setting [1]) and at h-TGR5 (setting [2]) was < 100 nM throughout.
For the molecule `COc1cc(-n2c(C(C)(C)c3ccc(S(N)(=O)=O)cc3)cnc2SCc2c(F)cc(C(=O)O)cc2F)ccc1F` [4-{[(5-{1-[4-(aminosulfonyl)phenyl]-1-methylethyl}-1-[4-fluoro-3-(methyloxy)phenyl]-1H-imidazol-2-yl)thio]methyl}-3,5-difluorobenzoic acid], the concentration giving a half-maximal response (EC50) at human TGR5 (h-TGR5) (setting [1]) and on h-TGR5 (setting [2]) was 100 to 1000 nM in each case.
